{"source": "patent US20170315126A1", "about": "“METHOD FOR SCREENING COMPOUND SPECIFICALLY SUPPRESSING FORMATION OF CAVEOLAE OF CANCER CELLS, SCREENING KIT, VECTOR AND TRANSFORMANT TO BE USED IN KIT, AND METHOD FOR SELECTING PATIENT FOR WHOM MOLECULARLY TARGETED DRUG IS INDICATED” (NATIONAL UNIVERSITY CORPORATION NAGOYA INSTITUTE OF …, priority 2014, published 2017)", "molecules": {"B1": {"name": "Cavin-2 (other, human, UniProt O95810 2-425, looked up)", "chain": "GEDAAQAEKFQHPGSDMRQEKPSSPSPMPSSTPSPSLNLGNTEEAIRDNSQVNAVTVLTLLDKLVNMLDAVQENQHKMEQRQISLEGSVKGIQNDLTKLSKYQASTSNTVSKLLEKSRKVSAHTRAVKERMDRQCAQVKRLENNHAQLLRRNHFKVLIFQEENEIPASVFVKQPVSGAVEGKEELPDENKSLEETLHTVDLSSDDDLPHDEEALEDSAEEKVEESRAEKIKRSSLKKVDSLKKAFSRQNIEKKMNKLGTKIVSVERREKIKKSLTSNHQKISSGKSSPFKVSPLTFGRKKVREGESHAENETKSEDLPSSEQMPNDQEEESFAEGHSEASLASALVEGEIAEEAAEKATSRGSNSGMDSNIDLTIVEDEEEESVALEQAQKVRYEGSYALTSEEAERSDGDPVQPAVLQVHQTS", "notes": "whole, on cells; Detected with anti-Cavin-2 (Abcam) in IP-WB of cell extracts"}, "B2": {"name": "human Cavin-1 (other, UniProt Q6NZI2 1-390, looked up)", "chain": "MEDPTLYIVERPLPGYPDAEAPEPSSAGAQAAEEPSGAGSEELIKSDQVNGVLVLSLLDKIIGAVDQIQLTQAQLEERQAEMEGAVQSIQGELSKLGKAHATTSNTVSKLLEKVRKVSVNVKTVRGSLERQAGQIKKLEVNEAELLRRRNFKVMIYQDEVKLPAKLSISKSLKESEALPEKEGEELGEGERPEEDAAALELSSDEAVEVEEVIEESRAERIKRSGLRRVDDFKKAFSKEKMEKTKVRTRENLEKTRLKTKENLEKTRHTLEKRMNKLGTRLVPAERREKLKTSRDKLRKSFTPDHVVYARSKTAVYKVPPFTFHVKKIREGQVEVLKATEMVEVGADDDEGGAERGEAGDLRRGSSPDVHALLEITEESDAVLVDKSDSD", "notes": "whole, on cells; Intracellular protein; endogenous in cell extracts or full length expressed from pCMVpuro-Cavin-1 in COS-7 cells; also called endogenous Cavin-1; pCMVpuro-Cavin-1-WT"}, "B3": {"name": "human Caveolin 1 (other, UniProt Q03135 2-178, looked up)", "chain": "SGGKYVDSEGHLYTVPIREQGNIYKPNNKAMADELSEKQVYDAHTKEIDLVNRDPKHLNDDVVKIDFEDVIAEPEGTHSFDGIWKASFTTFTVTKYWFYRLLSALFGIPMALIWGIYFAILSFLHIWAVVPCIKSFLIEIQCISRVYSIYVHTVCDPLFEAVGKIFSNVRINLQKEI", "notes": "whole, on cells; Endogenous in cell extracts or full length expressed from pCMVpuro-CAV1 in COS-7 cells; also called CAV1; endogenous CAV1"}}, "key": {"PC-9 cells": {"system": "PC-9 cells", "settings": "cited from earlier work"}, "NCI-H1975 cells": {"system": "NCI-H1975 cells", "settings": "cited from earlier work"}, "PC-9 and NCI-H1975": {"system": "PC-9 and NCI-H1975", "test": "Cell proliferation by colorimetry (cell counting kit-8) after siRNA transfection", "format": "cell-based, human", "settings": "120 hours after transfection", "method": "Transfection of the siRNA (20 nM each) was conducted in accordance with the manufacturer's instruction manual using lipofectamine RNAiMAX (manufactured by Invitrogen). Cells were recovered 72 hours after transfection for Western blotting analysis. Cells were also recovered 120 hours after transfection for analysis by colorimetry to measure cell proliferation.\nsiControl or siROR1, siCavin-1, or siCAV1 was transfected against the PC-9 or NCI-H1975 cell line to investigate the effects of silencing of ROR1, Cavin-1, and CAV1 on cell proliferation. A reaction was conducted using a cell counting kit-8 (Dojindo) 120 hours after transfection, the absorbance was measured by a plate reader, and colorimetry was conducted. Furthermore, this experiment was conducted three separate times, and the average values were graphed."}, "CAV1": {"system": "CAV1", "test": "Western blotting of CAV1 expression after siRNA transfection in pulmonary adenocarcinoma cell lines", "format": "cell-based, human", "settings": "siRNA 20 nM", "method": "Western blotting analysis and IP-WB analysis were conducted by the standard methods using an Immobilon-P filter (manufactured by Millipore Corp.) and an enhanced chemiluminescence system (manufactured by GE Healthcare Inc.). pCMVpuro-Cavin-1-WT was coexpressed with various ROR1 expression constructs such as the wild type (WT), TKΔ473-564 (TKΔ1), TK564-655 (TKΔ2), TKΔ655-746 (TKΔ3), TKΔ473-655 (TKΔ1+×2), TKΔ564-746 (TKΔ2+Δ3), and TKΔ473-746 (TKA1+Δ2+A3) to identify the binding site of ROR1 and Cavin-1. pCMVpuro-CAV1-WT was coexpressed with ROR1 expression constructs such as the wild type (WT), TKΔ473-564 (TKΔ1), TKΔ564-655 (TKΔ2), TKΔ655-746 (TKΔ3), ST1Δ748-782 (ΔST1), PΔ784-851 (ΔP), and ST2Δ853 to 876 (ΔST2) to identify the binding site of ROR1 and CAV1. For these, the cells were recovered 24 hours after transfection by Fugene6 (Promega) using COS-7 cells, and IP-WB analysis was conducted.\nTransfection of the siRNA (20 nM each) was conducted in accordance with the manufacturer's instruction manual using lipofectamine RNAiMAX (manufactured by Invitrogen). […] Cells were also recovered 120 hours after transfection for analysis by colorimetry to measure cell proliferation."}, "[1]": {"target": "T1, human ROR1 (receptor tyrosine kinase-like orphan receptor 1) (human, UniProt Q01973 30-937)", "T1 construct": "whole, on cells; also called endogenous ROR1; ROR1-WT", "T1 sequence (Q01973 30-937)": "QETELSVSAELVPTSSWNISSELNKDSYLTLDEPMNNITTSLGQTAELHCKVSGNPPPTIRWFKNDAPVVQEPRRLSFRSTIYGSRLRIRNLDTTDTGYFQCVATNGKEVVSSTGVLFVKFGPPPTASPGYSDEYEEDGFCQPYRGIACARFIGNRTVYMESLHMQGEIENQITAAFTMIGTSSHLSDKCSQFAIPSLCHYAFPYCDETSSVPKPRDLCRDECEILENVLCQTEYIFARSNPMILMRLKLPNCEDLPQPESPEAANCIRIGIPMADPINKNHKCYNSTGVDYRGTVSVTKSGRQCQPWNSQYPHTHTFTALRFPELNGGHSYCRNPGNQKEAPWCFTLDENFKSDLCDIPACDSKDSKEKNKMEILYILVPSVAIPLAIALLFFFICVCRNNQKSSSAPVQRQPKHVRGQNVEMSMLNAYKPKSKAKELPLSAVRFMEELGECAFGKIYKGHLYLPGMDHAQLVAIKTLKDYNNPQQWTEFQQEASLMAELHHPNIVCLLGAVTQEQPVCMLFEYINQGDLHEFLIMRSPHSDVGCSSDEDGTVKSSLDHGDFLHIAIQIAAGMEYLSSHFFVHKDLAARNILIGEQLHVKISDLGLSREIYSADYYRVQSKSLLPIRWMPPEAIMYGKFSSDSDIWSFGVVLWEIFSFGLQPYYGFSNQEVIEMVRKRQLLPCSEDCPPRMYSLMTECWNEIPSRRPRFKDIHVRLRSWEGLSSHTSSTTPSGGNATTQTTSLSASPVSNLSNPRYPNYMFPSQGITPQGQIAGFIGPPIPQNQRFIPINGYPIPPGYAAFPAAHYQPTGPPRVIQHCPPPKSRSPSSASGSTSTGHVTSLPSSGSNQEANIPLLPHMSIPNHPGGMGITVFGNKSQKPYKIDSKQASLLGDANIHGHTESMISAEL", "test": "IP-WB of endogenous proteins in octyl glucoside cell extracts"}, "[2]": {"target": "T1, human ROR1 (receptor tyrosine …)", "test": "IP-WB of octyl glucoside extracts of NCI-H1975 and SK-LU-1 cells"}, "human Cavin-1": {"target": "B2", "test": "IP-WB of NCI-H1975 cell extract 24 hours after transfection of siROR1"}, "[3]": {"target": "T1, human ROR1 (receptor tyrosine …)", "test": "IP-WB of ROR1 constructs coexpressed with CAV1 in COS-7 cells", "method": "For these, the cells were recovered 24 hours after transfection by Fugene6 (Promega) using COS-7 cells, and IP-WB analysis was conducted."}, "[4]": {"settings": "NCI-H1975, 72 hours after transfection"}}, "note": "Like-named read-outs stand apart in the source and are kept apart here."}
{"molecule": "COc1cc2ncnc(Nc3ccc(F)c(Cl)c3)c2cc1OCCCN1CCOCC1", "note": "[gefitinib, Gefitinib]", "values": [{"measurement": "sensitivity of cells to EGFR-TKI", "setting": "PC-9 cells; PC-9, no ligand", "value": "sensitive"}, {"measurement": "sensitivity of cells to EGFR-TKI", "setting": "PC-9 cells; PC-9 in the presence of HGF", "value": "resistance"}, {"measurement": "sensitivity of cells to EGFR-TKI", "setting": "NCI-H1975 cells; NCI-H1975 (EGFR T790M double mutation), no ligand", "value": "resistance"}]}
{"molecule": "siCavin-1#2: RNA oligomer for RNAi against human Cavin-1, 5′-CCCGCCGAGCGGCGCGAGAAA-3′ (SEQ ID No: 19) (listed as RNA, further chemistry not given here)", "values": [{"measurement": "cell proliferation (colorimetry)", "setting": "PC-9 and NCI-H1975", "value": "inhibit cell proliferation"}]}
{"molecule": "siIGF-IR#1: RNA oligomer for RNAi against human IGF-IR, 5′-GGAAUUGCAUGGUAGCCGAUU-3′ (SEQ ID No: 16) (listed as RNA, further chemistry not given here)", "values": [{"measurement": "CAV1 expression (Western blot)", "setting": "CAV1; NCI-H358", "value": "downregulation of CAV1 was also found"}, {"measurement": "CAV1 expression (Western blot)", "setting": "CAV1; [4]", "value": "downregulate CAV1"}]}
{"molecule": "CC#CC(=O)Nc1ccc2ncnc(Nc3cccc(Br)c3)c2c1", "note": "[CL-387, 785]", "values": [{"measurement": "sensitivity of cells to EGFR-TKI", "setting": "NCI-H1975 cells; NCI-H1975 in the presence of HGF", "value": "resistance"}]}
{"molecule": "siCavin-1#1: RNA oligomer for RNAi against human Cavin-1, 5′-CUCCAAGACCGCGGUCUACAA-3′ (SEQ ID No: 18) (listed as RNA, further chemistry not given here)", "values": [{"measurement": "cell proliferation (colorimetry)", "setting": "PC-9 and NCI-H1975", "value": "inhibit cell proliferation"}]}
{"molecule": "siIGF-IR#2: RNA oligomer for RNAi against human IGF-IR, 5′-CUGACUACAGGGAUCUCAUUU-3′ (SEQ ID No: 17) (listed as RNA, further chemistry not given here)", "values": [{"measurement": "CAV1 expression (Western blot)", "setting": "CAV1; NCI-H358", "value": "downregulation of CAV1 was also found"}, {"measurement": "CAV1 expression (Western blot)", "setting": "CAV1; [4]", "value": "downregulate CAV1"}]}
{"molecule": "B1", "values": [{"measurement": "binding result", "setting": "[1]", "value": "no binding"}]}
{"molecule": "B2", "values": [{"measurement": "binding result", "setting": "[2]", "value": "binds"}]}
{"molecule": "B3", "values": [{"measurement": "binding result", "setting": "human Cavin-1", "value": "binds"}, {"measurement": "binding result", "setting": "[3]", "value": "binds"}]}
